The target in experiment [1] is T1, P2X4 (Homo sapiens, UniProt Q99571).
T1 sequence (Q99571 1-388): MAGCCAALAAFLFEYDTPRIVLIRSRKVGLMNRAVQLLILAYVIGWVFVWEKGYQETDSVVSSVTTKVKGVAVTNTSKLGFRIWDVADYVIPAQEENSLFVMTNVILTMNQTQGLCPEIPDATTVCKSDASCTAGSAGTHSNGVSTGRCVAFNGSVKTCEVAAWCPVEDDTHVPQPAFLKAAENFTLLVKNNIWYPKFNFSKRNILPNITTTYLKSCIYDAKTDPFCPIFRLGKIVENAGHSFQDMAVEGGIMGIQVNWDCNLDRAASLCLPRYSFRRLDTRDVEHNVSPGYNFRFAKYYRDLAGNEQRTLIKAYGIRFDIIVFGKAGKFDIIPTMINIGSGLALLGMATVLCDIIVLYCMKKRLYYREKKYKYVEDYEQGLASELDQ
The experiment can be described thus: Assay B: human P2X4 receptor cell line, mitochondrial photina luminescence (agonist Bz-ATP at EC50). In kind it is cell-based. Set-up: host or cells: HEK 293 (recombinant, constitutively expressing; with mitochondrial photina in Assay B). To be noted: HEK human P2X4 cell line, photina luminescence, agonist Bz-ATP at EC50, average; for Emax: read-out: human P2X4 Assay B avg Efficacy. In a few lines:
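Bz-ATP at its EC50 activates human P2X4 stably expressed in a cell line that also carries the calcium-sensitive photoprotein mitochondrial photina (coelenterazine cofactor). Light emitted on calcium influx is measured straight away in a luminometer. Reduced luminescence indicates antagonism.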

Experiment [2] deals with T1, P2X4. Nature of the experiment: Assay A: human P2X4 receptor cell line, FLIPR calcium assay (Fluo-8, agonist Bz-ATP at EC80). The format is cell-based. Set-up: host or cells: HEK 293 (recombinant, constitutively expressing; with mitochondrial photina in Assay B). To be noted: HEK human P2X4 cells, Fluo-8 FLIPR; for IC50: Bz-ATP at EC80, average values; for Emax: percentage of maximal inhibition, read-out: human P2X4 Assay A avg Efficacy. Here is the method:
A fluorescent imaging plate reader (FLEX/FLIPR station; Molecular Devices) was used to monitor intracellular calcium levels using the calcium-chelating dye Fluo-8 (Molecular Probes). […] Cells expressing purinergic receptors human P2X4 (HEK human P2X4: PerkinElmer, Product No.: AX-015-PCF) were plated at a density of 20,000 cells/well in poly-D-lysine-coated 384-well plates approximately 20 hours before beginning the assay. On the day of the assay, the medium was removed and 30 μl of dye buffer (Hank's balanced salt solution, 10 mM HEPES, 1.8 mM CaCl2), 1 mM MgCl2, 2 mM probenecid, 5 mM D-glucose monohydrate, 5 μM Fluo-8, pH=7.4) was added for 30 min at […] and 5% CO2. The antagonist in probenecid buffer (Hank's balanced salt solution, 10 mM HEPES, 1.8 mM CaCl2, 1 mM MgCl2, 2 mM probenecid, 5 mM D-glucose monohydrate, pH=7.4) was added in a volume of 10 μl and allowed to incubate for 30 min at room temperature. The final assay DMSO concentration is 0.5%. The agonist, Bz-ATP, is added in a volume of 10 μl at a concentration representing the EC80 value. The fluorescence was measured for an interval of 120 sec at 2 sec intervals and analyzed based on the increase in peak relative fluorescence units (RFU) compared to the basal fluorescence. Peak fluorescence was used to determine the response to agonist obtained at each concentration of antagonist by the following equation:
% Response=100*(RFU(drug)−RFU(control))/(RFU(DMSO)−RFU(control))
The compounds were tested in triplicates per plate and mean values were plotted in Excel XLFit to determine IC50 values, percentage of maximal inhibition and the Hill coefficients.

Results on 26 compounds are retold here after patent publication US20180338980A1, “AROMATIC SULFONAMIDE DERIVATIVES” (BAYER PHARMA AKTIENGESELLSCHAFT, priority 2015, published 2018).

“And” between values parts separate entries of the source, which are not always exact repeats. Equal entries are not always repeated.

With `NS(=O)(=O)c1cc(NC(=O)Cc2ccccc2F)ccc1Oc1ccc(Cl)cc1` [Example 230, N-[4-(4-Chlorophenoxy)-3-sulfamoylphenyl]-2-(2-fluorophenyl)acetamide], the Emax at P2X4 [1] was found to be 50%. What is called IC50 is the point on the concentration scale where inhibition reaches its midpoint. Take `Cn1ccc(Oc2ccc(NC(=O)Cc3ccccc3Cl)cc2S(N)(=O)=O)n1` [Example 236, 2-(2-Chlorophenyl)-N-{4-[(1-methyl-1H-pyrazol-3-yl)oxy]-3-sulfamoylphenyl}acetamide]: on P2X4 [1], the IC50 was 0.232 µM and the Emax stood at 77%. The like results for `Cn1nccc1Oc1ccc(NC(=O)Cc2ccccc2Cl)cc1S(N)(=O)=O` [Example 237, 2-(2-Chlorophenyl)-N-{4-[(1-methyl-1H-pyrazol-5-yl)oxy]-3-sulfamoylphenyl}acetamide] were, in that order, 0.235 µM and 59%. Consider `CN1CCC(Oc2ccc(NC(=O)Cc3ccccc3Cl)cc2S(N)(=O)=O)CC1` [Example 238, 2-(2-Chlorophenyl)-N-{4-[(1-methylpiperidin-4-yl)oxy]-3-sulfamoylphenyl}acetamide], for which, on P2X4 [1], the IC50 is over 16 µM. Regarding `Cc1sc(-c2cccnc2)nc1Oc1ccc(NC(=O)Cc2ccccc2Cl)cc1S(N)(=O)=O` [Example 239, 2-(2-Chlorophenyl)-N-(4-{[5-methyl-2-(pyridin-3-yl)-1,3-thiazol-4-yl]oxy}-3-sulfamoylphenyl)acetamide], on P2X4 [1], the IC50 was determined as 0.152 µM and the Emax came to 99%. Take `Cc1cc(Oc2cccc(Cl)c2)c(S(N)(=O)=O)cc1NC(=O)Cc1ccccc1Cl` [Example 240, N-[4-(3-Chlorophenoxy)-2-methyl-5-sulfamoylphenyl]-2-(2-chlorophenyl)acetamide]: on P2X4 [1], the IC50 is 3.04 µM and the Emax came out at 86%. `NS(=O)(=O)c1cc(NC(=O)Cc2ccccc2Cl)ccc1OC1CC[S+]([O-])C1` (stereo not shown) [Example 241, 2-(2-Chlorophenyl)-N-{4-[(1-oxidotetrahydrothiophen-3-yl)oxy]-3-sulfamoylphenyl}acetamide]: on P2X4 [1], the 50% inhibitory concentration (IC50) was over 16 µM and the Emax amounted to 34%. On to `NS(=O)(=O)c1cc(NC(=O)Cc2c(Cl)cc(C(F)(F)F)cc2Cl)ccc1Oc1ccc(Cl)cc1` [Example 242, N-[4-(4-Chlorophenoxy)-3-sulfamoylphenyl]-2-[2,6-dichloro-4-(trifluoromethyl)phenyl]acetamide], for which, on P2X4 [1], the IC50 is 2.87 µM and > 16 µM; the Emax is 71%. With `N#Cc1cc(Cl)c(CC(=O)Nc2ccc(Oc3ccc(Cl)cc3)c(S(N)(=O)=O)c2)cc1Cl` [Example 243, N-[4-(4-Chlorophenoxy)-3-sulfamoylphenyl]-2-(2,5-dichloro-4-cyanophenyl)acetamide], at P2X4 [1], the half-maximal inhibitory concentration (IC50) turned out to be 2.72 µM and the Emax came to 70%. Consider `NS(=O)(=O)c1cc(NC(=O)Cc2ccccc2)ccc1OCC1CC1` [Example 245, N-[4-(Cyclopropylmethoxy)-3-sulfamoylphenyl]-2-phenylacetamide], for which, on P2X4 [1], the IC50 is 5.97 µM and the Emax came to 68%. As to `Cc1cc(C)cc(Oc2ccc(NC(=O)Cc3ccccc3)cc2S(N)(=O)=O)c1` [Example 246, N-[4-(3,5-Dimethylphenoxy)-3-sulfamoylphenyl]-2-phenylacetamide], at P2X4 [1], the IC50 was 0.949 µM and the Emax came to 94%. The like results for `NS(=O)(=O)c1cc(NC(=O)Cc2ccccc2)ccc1Oc1ccc(F)cc1F` [Example 247, N-[4-(2,4-Difluorophenoxy)-3-sulfamoylphenyl]-2-phenylacetamide] were, in that order, 1.11 µM and 59%. The like results for `NS(=O)(=O)c1cc(NC(=O)Cc2ccccc2)ccc1Oc1ccc(F)cc1` [Example 248, N-[4-(4-Fluorophenoxy)-3-sulfamoylphenyl]-2-phenylacetamide] were, in that order, 1.28 µM and 62%. For `NS(=O)(=O)c1cc(NC(=O)Cc2ccccc2)ccc1Oc1cccc(F)c1` [Example 249, N-[4-(3-Fluorophenoxy)-3-sulfamoylphenyl]-2-phenylacetamide] the same measures were 0.544 µM and 73%.

On to `COc1cccc(Oc2ccc(NC(=O)Cc3ccccc3)cc2S(N)(=O)=O)c1` [Example 250, N-[4-(3-Methoxyphenoxy)-3-sulfamoylphenyl]-2-phenylacetamide], for which, on P2X4 [1], the IC50 was found to be 0.439 µM and the Emax turned out to be 82%. For `Cc1ccc(F)c(Oc2ccc(NC(=O)Cc3ccccc3)cc2S(N)(=O)=O)c1` [Example 251, N-[4-(2-Fluoro-5-methylphenoxy)-3-sulfamoylphenyl]-2-phenylacetamide] the same measures were 0.392 µM and 100%. Consider `NS(=O)(=O)c1cc(NC(=O)Cc2ccccc2)ccc1Oc1ccc(OC(F)(F)F)cc1` [Example 252, 2-Phenyl-N-{3-sulfamoyl-4-[4-(trifluoromethoxy)phenoxy]phenyl}acetamide], for which, on P2X4 [1], the half-maximal inhibitory concentration (IC50) amounted to 6.46 µM and the Emax turned out to be 93%. The like results for `NS(=O)(=O)c1cc(NC(=O)Cc2ccccc2)ccc1Oc1cccc(C(F)(F)F)c1` [Example 253, 2-Phenyl-N-{3-sulfamoyl-4-[3-(trifluoromethyl)phenoxy]phenyl}acetamide] were, in that order, 0.236 µM and 71%.

For `N#Cc1cccc(Oc2ccc(NC(=O)Cc3ccccc3)cc2S(N)(=O)=O)c1` [Example 255, N-[4-(3-Cyanophenoxy)-3-sulfamoylphenyl]-2-phenylacetamide], at P2X4 [1], the IC50 worked out at 0.271 µM and the Emax was 64%.

Consider `NS(=O)(=O)c1cc(NC(=O)Cc2ccc(O)cc2)ccc1Oc1cccc(Cl)c1` [Example 256, N-[4-(3-Chlorophenoxy)-3-sulfamoylphenyl]-2-(4-hydroxyphenyl)acetamide], for which, at P2X4 [2], the IC50 was determined as 0.019 µM and the Emax was 75%.

As for `COc1cc(C)cc(Cl)c1CC(=O)Nc1ccc(Oc2cccc(Cl)c2)c(S(N)(=O)=O)c1` [Example 257, 2-(2-Chloro-6-methoxy-4-methylphenyl)-N-[4-(3-chlorophenoxy)-3-sulfamoylphenyl]acetamide], at P2X4 [2], the IC50 turned out to be 0.355 µM and the Emax was 85%. For `NS(=O)(=O)c1cc(NC(=O)Cc2c(F)cc(F)cc2Cl)ccc1Oc1cccc(Cl)c1` [Example 259, 2-(2-Chloro-4,6-difluorophenyl)-N-[4-(3-chlorophenoxy)-3-sulfamoylphenyl]acetamide] the same measures were 0.145 µM and 76%. For `CC(C(=O)Nc1ccc(Oc2cccc(Cl)c2)c(S(N)(=O)=O)c1)c1c(Cl)cccc1Cl` (stereo not shown) [Example 260, N-[4-(3-Chlorophenoxy)-3-sulfamoylphenyl]-2-(2,6-dichlorophenyl)propanamide] the same measures were 2.49 µM and 90%. For the compound `[2H]c1c([2H])c([2H])c(Oc2ccc(NC(=O)Cc3ccccc3Cl)cc2S(N)(=O)=O)c([2H])c1[2H]` [Example 261, 2-(2-Chlorophenyl)-N-{4-[(^2H5)phenyloxy]-3-sulfamoylphenyl}acetamide], the Emax at P2X4 [2] is 89%.

Take `NS(=O)(=O)c1cc(NC(=O)Cc2ccc3c(c2)OCCO3)ccc1Oc1ccc(Cl)cc1` [Example 276, N-[4-(4-Chlorophenoxy)-3-sulfamoylphenyl]-2-(2,3-dihydro-1,4-benzodioxin-6-yl)acetamide]: at P2X4 [1], the 50% inhibitory concentration (IC50) was over 50 µM and the Emax turned out to be 35%. The like results for `NS(=O)(=O)c1cc(NC(=O)Cc2cc3c(cc2Cl)OCCO3)ccc1Oc1cccc(Cl)c1` [Example 277, 2-(7-Chloro-2,3-dihydro-1,4-benzodioxin-6-yl)-N-[4-(3-chlorophenoxy)-3-sulfamoylphenyl]acetamide] were, in that order, 0.185 µM and 45%.
